The text below walks through data of patent US20220315621A1, “COMPOSITIONS AND METHODS FOR TREATING CNS DISORDERS” (priority 2017, published 2022).

Molecules are shown by their SMILES. Some results are limits rather than exact numbers.

As a reminder, the IC50 is the concentration that inhibits the measured activity by half.

The target of the first assay is TBPS binding. Put plainly: Steroid inhibition of TBPS binding. Particulars: Table II-2; read-out: TBPS IC50 (μm).
Regarding `C[C@]1(O)CCC[C@@]2(C)[C@@H](CC[C@@H]3[C@@H]2CC[C@]2(C)[C@@H](C(=O)Cn4cc(C#N)cn4)CC[C@@H]32)C1` [II-D5b, 1-(2-((1S,3aS,3bR,5aS,7S,10aS,10bS,12aS)-7-hydroxy-7,10a,12a-trimethyloctadecahydrocyclohepta[a]cyclopenta[f]naphthalen-1-yl)-2-oxoethyl)-1H-pyrazole-4-carbonitrile], the IC50 lay within 0.1 to 1 µM.

Take `CC(=O)[C@H]1CC[C@H]2[C@@H]3CC=C4CC[C@](C)(O)CC[C@]4(C)[C@H]3CC[C@]12C` [II-C2a, 1-((1S,3aS,3bS,8S,10aR,10bS,12aS)-8-hydroxy-8,10a,12a-trimethyl-1,2,3,3a,3b,4,6,7,8,9,10,10a,10b,11,12,12a-hexadecahydrocyclohepta[a]cyclopenta[f]naphthalen-1-yl)ethan-1-one]: the IC50 fell in the range of 0.01 to 0.1 µM.

For the compound `CC(=O)[C@H]1CC[C@H]2[C@@H]3CC[C@H]4CC[C@](C)(O)CC[C@]4(C)[C@H]3CC[C@]12C` [II-C3, 1-((1S,3aS,3bR,5aS,8S,10aS,10bS,12aS)-8-hydroxy-8,10a,12a-trimethyloctadecahydrocyclohepta[a]cyclopenta[f]naphthalen-1-yl)ethan-1-one], the IC50 was in the range of 0.01 to 0.1 µM.

Consider `Cc1nnn(CC(=O)[C@H]2CC[C@H]3[C@@H]4CC[C@H]5CC[C@](C)(O)CC[C@]5(C)[C@H]4CC[C@]23C)n1` [II-C11, 1-((1S,3aS,3bR,5aS,8S,10aS,10bS,12aS)-8-hydroxy-8,10a,12a-trimethyloctadecahydrocyclohepta[a]cyclopenta[f]naphthalen-1-yl)-2-(5-methyl-2H-tetrazol-2-yl)ethan-1-one], for which the IC50 lay in the range of 0.01 to 0.1 µM.

In the case of `C[C@]12CC[C@@H]3[C@H]4CC[C@@](C)(O)[C@@H]4CC[C@H]3[C@@H]1CC[C@@H]2C(=O)Cn1cc(C#N)cn1` [II-H13, 1-(2-((1S,3aS,3bR,5aR,6R,8aR,8bS,10aS)-6-hydroxy-6,10a-dimethylhexadecahydrodicyclopenta[a,f]naphthalen-1-yl)-2-oxoethyl)-1H-pyrazole-4-carbonitrile], the IC50 is 1 to 10 µM.

Regarding `C[C@]12CC[C@@H]3[C@H]4CC[C@](C)(O)[C@@H]4CC[C@H]3[C@@H]1CC[C@@H]2C(=O)Cn1cc(C#N)cn1` [II-H19, 1-(2-((1S,3aS,3bR,5aR,6S,8aR,8bS,10aS)-6-hydroxy-6,10a-dimethylhexadecahydrodicyclopenta[a,f]naphthalen-1-yl)-2-oxoethyl)-1H-pyrazole-4-carbonitrile], the IC50 is 1 to 10 µM.

Consider `C[C@]1(O)C[C@H]2CC[C@@H]3[C@H](CC[C@]4(C)[C@@H](C(=O)Cn5cc(C#N)cn5)CC[C@@H]34)[C@H]2C1` [II-G10], for which the half-maximal inhibitory concentration (IC50) fell in the range of 0.1 to 1 µM.

`C[C@]1(O)CCC[C@H]2[C@H](CC[C@@H]3[C@@H]2CC[C@]2(C)[C@@H](C(=O)Cn4cc(C#N)cn4)CC[C@@H]32)C1` [II-E10, 1-(2-((1S,3aS,3bR,5aR,7S,10aS,10bR,12aS)-7-hydroxy-7,12a-dimethyloctadecahydrocyclohepta[a]cyclopenta[f]naphthalen-1-yl)-2-oxoethyl)-1H-pyrazole-4-carbonitrile]: the IC50 is 0.1 to 1 µM.

Regarding `C[C@]1(O)C[C@H]2CC[C@@H]3[C@H](CC[C@]4(C)[C@@H](C(=O)Cn5nccn5)CC[C@@H]34)[C@H]2C1` [II-G11, 1-((1S,3aS,3bR,5aR,7S,8aS,8bR,10aS)-7-hydroxy-7,10a-dimethylhexadecahydrodicyclopenta[a,f]naphthalen-1-yl)-2-(2H-1,2,3-triazol-2-yl)ethan-1-one], the IC50 was in the range of 0.1 to 1 µM.

On to `CC(=O)[C@H]1CC[C@H]2[C@@H]3CC=C4CC[C@@](C)(O)CC[C@]4(C)[C@H]3CC[C@]12C` [II-C2b, 1-((1S,3aS,3bS,8R,10aR,10bS,12aS)-8-hydroxy-8,10a,12a-trimethyl-1,2,3,3a,3b,4,6,7,8,9,10,10a,10b,11,12,12a-hexadecahydrocyclohepta[a]cyclopenta[f]naphthalen-1-yl)ethan-1-one], for which the IC50 was 1 to 10 µM.

Regarding `C[C@@]1(O)CCC[C@@]2(C)[C@@H](CC[C@@H]3[C@@H]2CC[C@]2(C)[C@@H](C(=O)Cn4cc(C#N)cn4)CC[C@@H]32)C1` [II-D5a, 1-(2-((1S,3aS,3bR,5aS,7R,10aS,10bS,12aS)-7-hydroxy-7,10a,12a-trimethyloctadecahydrocyclohepta[a]cyclopenta[f]naphthalen-1-yl)-2-oxoethyl)-1H-pyrazole-4-carbonitrile], the IC50 was in the range of 0.01 to 0.1 µM.

As for `C[C@]1(O)CCC2=CC[C@H]3[C@@H]4CC[C@H](C(=O)Cn5cc(C#N)cn5)[C@@]4(C)CC[C@@H]3[C@@]2(C)CC1` [II-F3, 1-(2-((1S,3aS,3bS,8S,10aR,10bS,12aS)-8-hydroxy-8,10a,12a-trimethyl-1,2,3,3a,3b,4,6,7,8,9,10,10a,10b,11,12,12a-hexadecahydrocyclohepta[a]cyclopenta[f]naphthalen-1-yl)-2-oxoethyl)-1H-pyrazole-4-carbonitrile], the IC50 is less than 0.01 µM.

In the case of `CC(=O)[C@H]1CC[C@H]2[C@@H]3CC=C4C[C@](C)(O)CCC[C@]4(C)[C@H]3CC[C@]12C` [II-D2a, 1-((1S,3aS,3bS,7R,10aR,10bS,12aS)-7-hydroxy-7,10a,12a-trimethyl-1,2,3,3a,3b,4,6,7,8,9,10,10a,10b,11,12,12a-hexadecahydrocyclohepta[a]cyclopenta[f]naphthalen-1-yl)ethan-1-one], the IC50 lay in the range of 1 to 10 µM.

As to `C[C@]1(O)C[C@H]2CC[C@@H]3[C@H](CC[C@]4(C)[C@@H](C(=O)Cn5ccnn5)CC[C@@H]34)[C@H]2C1` [II-G12, 1-((1S,3aS,3bR,5aR,7S,8aS,8bR,10aS)-7-hydroxy-7,10a-dimethylhexadecahydrodicyclopenta[a,f]naphthalen-1-yl)-2-(1H-1,2,3-triazol-1-yl)ethan-1-one], the IC50 was in the range of 0.1 to 1 µM.

Consider `CC(=O)[C@H]1CC[C@H]2[C@@H]3CC[C@@H]4[C@H](CC[C@@]4(C)O)[C@H]3CC[C@]12C` [II-H11, 1-((1S,3aS,3bR,5aR,6R,8aR,8bS,10aS)-6-hydroxy-6,10a-dimethylhexadecahydrodicyclopenta[a,f]naphthalen-1-yl)ethan-1-one], for which the IC50 was 1 to 10 µM.

For `CC(=O)[C@H]1CC[C@H]2[C@@H]3CC[C@@H]4C[C@](C)(O)CCC[C@@H]4[C@H]3CC[C@]12C` [II-E8a, 1-((1S,3aS,3bR,5aR,7R,10aS,10bR,12aS)-7-hydroxy-7,12a-dimethyloctadecahydrocyclohepta[a]cyclopenta[f]naphthalen-1-yl)ethan-1-one], the IC50 lay within 0.01 to 0.1 µM.

For the compound `C[C@@]1(O)CCC[C@H]2[C@H](CC[C@@H]3[C@@H]2CC[C@]2(C)[C@@H](C(=O)Cn4cc(C#N)cn4)CC[C@@H]32)C1` [II-E10a, 1-(2-((1S,3aS,3bR,5aR,7R,10aS,10bR,12aS)-7-hydroxy-7,12a-dimethyloctadecahydrocyclohepta[a]cyclopenta[f]naphthalen-1-yl)-2-oxoethyl)-1H-pyrazole-4-carbonitrile], the IC50 was in the range of 0.01 to 0.1 µM.

As for `Cc1nnn(CC(=O)[C@H]2CC[C@H]3[C@@H]4CC[C@@H]5CC[C@](C)(O)CC[C@@H]5[C@H]4CC[C@]23C)n1` [II-F12, 1-((1S,3aS,3bR,5aR,8S,10aS,10bR,12aS)-8-hydroxy-8,12a-dimethyloctadecahydrocyclohepta[a]cyclopenta[f]naphthalen-1-yl)-2-(5-methyl-2H-tetrazol-2-yl)ethan-1-one], the 50% inhibitory concentration (IC50) lay within 0.1 to 1 µM.

Take `COC[C@]1(O)C[C@H]2CC[C@@H]3[C@H](CC[C@]4(C)[C@@H](C(=O)Cn5cc(C#N)cn5)CC[C@@H]34)[C@H]2C1` [II-J11, 1-(2-((1S,3aS,3bR,5aR,7S,8aS,8bR,10aS)-7-hydroxy-7-(methoxymethyl)-10a-methylhexadecahydrodicyclopenta[a,f]naphthalen-1-yl)-2-oxoethyl)-1H-pyrazole-4-carbonitrile]: the IC50 was 0.1 to 1 µM.

The assay is the same for the next values; noted with them: Table III-1; read-out: TBPS IC50.
On to `CC(=O)[C@H]1CC[C@H]2[C@@H]3CCC[C@H]4C[C@](C)(O)CC[C@@H]4[C@H]3CC[C@]12C` [III-A13, 1-((1S,3aS,3bR,6aS,8R,10aS,10bR,12aS)-8-hydroxy-8,12a-dimethyloctadecahydrobenzo[3,4]cyclohepta[1,2-e]inden-1-yl)ethan-1-one], for which the IC50 is 1 to 10 µM.

Staying with this assay, now noted: Table IV-2; read-out: TBPS IC50.
Turning to `C[C@@]1(O)CC[C@H]2[C@H](C[C@@H]3[C@@H]2CC[C@]2(C)[C@@H](C(=O)Cn4cc(C#N)cn4)CC[C@@H]32)C1` [IV-A16, 1-(2-((3S,3aS,5aR,5bS,8R,9aR,10aR,10bS)-8-hydroxy-3a,8-dimethylhexadecahydrocyclopenta[a]fluoren-3-yl)-2-oxoethyl)-1H-pyrazole-4-carbonitrile], the IC50 lay within 0.01 to 0.1 µM.

Take `C[C@@]1(O)CC[C@H]2[C@@H](C[C@@H]3[C@@H]2CC[C@]2(C)[C@@H](C(=O)Cn4cc(C#N)cn4)CC[C@@H]32)C1` [IV-B9, 1-(2-((3S,3aS,5aR,5bS,8R,9aS,10aR,10bS)-8-hydroxy-3a,8-dimethylhexadecahydrocyclopenta[a]fluoren-3-yl)-2-oxoethyl)-1H-pyrazole-4-carbonitrile]: the IC50 lay in the range of 0.01 to 0.1 µM.

Regarding `CC(=O)[C@H]1CC[C@H]2[C@@H]3C[C@H]4C[C@](C)(O)CC[C@@H]4[C@H]3CC[C@]12C` [IV-B7, 1-((3S,3aS,5aR,5bS,8R,9aS,10aR,10bS)-8-hydroxy-3a,8-dimethylhexadecahydrocyclopenta[a]fluoren-3-yl)ethan-1-one], the IC50 is 0.01 to 0.1 µM.

Staying with this assay, now noted: Table V-2; read-out: TBPS IC50.
Consider `C[C@@]1(O)CC[C@@]2(C)[C@@H](CC[C@@H]3[C@@H]2CCC[C@]2(C)[C@@H](C(=O)Cn4cc(C#N)cn4)CC[C@@H]32)C1` [V-A10, 1-(2-((3aS,4S,6aS,6bR,8aS,10R,12aS,12bS)-10-hydroxy-3a,10,12a-trimethyloctadecahydronaphtho[2,1-e]azulen-4-yl)-2-oxoethyl)-1H-pyrazole-4-carbonitrile], for which the IC50 lay within 0.1 to 1 µM.
